Read-outs that look alike come from different tables or passages of the source.
How the values were obtained:
Type in all cases: biochemical
[1] = target: T1, TEC (Homo sapiens, UniProt P42680); test: Inhibition of a panel of kinases (in vitro HotSpot kinase assay, 33P-ATP, 1 μM ATP); conditions: for IC50: HotSpot kinase assay, 1 μM ATP; for TEC/Btk: ratio of TEC IC50 to Btk IC50 (selectivity)
T1 sequence (P42680 1-631): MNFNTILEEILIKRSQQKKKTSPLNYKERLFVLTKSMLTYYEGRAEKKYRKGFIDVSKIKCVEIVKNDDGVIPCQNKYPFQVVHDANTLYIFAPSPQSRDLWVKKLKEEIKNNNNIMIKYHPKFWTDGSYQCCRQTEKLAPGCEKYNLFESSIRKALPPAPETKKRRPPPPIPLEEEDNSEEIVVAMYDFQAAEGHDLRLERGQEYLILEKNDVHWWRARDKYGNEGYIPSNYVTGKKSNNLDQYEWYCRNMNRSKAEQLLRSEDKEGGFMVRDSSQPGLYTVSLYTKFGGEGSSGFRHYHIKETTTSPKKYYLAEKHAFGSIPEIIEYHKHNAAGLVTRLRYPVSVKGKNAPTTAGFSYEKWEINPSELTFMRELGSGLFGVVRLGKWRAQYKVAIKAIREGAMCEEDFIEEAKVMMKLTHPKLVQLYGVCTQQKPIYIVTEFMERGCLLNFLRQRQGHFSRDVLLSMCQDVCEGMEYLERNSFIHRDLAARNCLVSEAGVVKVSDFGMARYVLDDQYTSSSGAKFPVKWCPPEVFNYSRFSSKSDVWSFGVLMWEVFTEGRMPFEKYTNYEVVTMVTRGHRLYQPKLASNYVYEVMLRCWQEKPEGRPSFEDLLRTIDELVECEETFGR
Outline: (§1)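 At 1 μM ATP spiked with 33P-ATP, substrate phosphorylation by the purified enzymes gives the extent of inhibition.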

[2] = target: T2, Btk (Homo sapiens, UniProt Q06187); test: Btk in vitro inhibitory activity (one of Method A TR-FRET, Method B electrophoretic mobility shift, Method C radiometric filter binding)
T2 construct: purified from insect cells as a full-length construct containing a N-terminal 6X-His tag; His6 (N); made in house; host or cells: insect cells (Method C)
T2 sequence (Q06187 whole entry): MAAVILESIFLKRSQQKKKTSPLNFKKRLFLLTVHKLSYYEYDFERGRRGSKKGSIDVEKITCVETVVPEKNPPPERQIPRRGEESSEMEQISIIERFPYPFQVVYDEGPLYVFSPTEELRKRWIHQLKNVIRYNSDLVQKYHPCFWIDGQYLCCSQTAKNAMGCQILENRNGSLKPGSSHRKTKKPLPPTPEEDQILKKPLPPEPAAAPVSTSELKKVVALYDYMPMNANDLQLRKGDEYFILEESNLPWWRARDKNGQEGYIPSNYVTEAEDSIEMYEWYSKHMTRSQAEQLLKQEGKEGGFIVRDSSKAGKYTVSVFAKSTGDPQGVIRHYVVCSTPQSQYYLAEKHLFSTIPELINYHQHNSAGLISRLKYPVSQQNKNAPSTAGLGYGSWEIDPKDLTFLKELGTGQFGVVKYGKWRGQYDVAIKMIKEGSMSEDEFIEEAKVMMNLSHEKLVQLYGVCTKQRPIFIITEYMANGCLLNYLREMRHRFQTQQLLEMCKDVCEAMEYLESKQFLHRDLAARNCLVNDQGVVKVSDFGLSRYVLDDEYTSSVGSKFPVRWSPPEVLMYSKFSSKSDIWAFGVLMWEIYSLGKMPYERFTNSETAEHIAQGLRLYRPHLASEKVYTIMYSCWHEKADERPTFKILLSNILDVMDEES
Outline: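 Three alternative formats were used. A radiometric filter-binding read used 8 nM full-length His-BTK with 0.2 mg/mL poly(Glu-Tyr) 4:1 (C); microfluidic separation of 1 μM FAM-peptide by 1 nM BTK gave IC50 from 12-point curves (B); TR-FRET at Km ATP, 0.5 nM Btk, gave Ki(app)-derived IC50 (A).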

[3] = target: T3, panel of kinases (Homo sapiens, UniProt P51813); test: Inhibition of a panel of kinases (in vitro HotSpot kinase assay, 33P-ATP, 1 μM ATP), other kinases; conditions: BMX wild-type, read-out: BMX-WT IC50
T3 sequence (P51813 1-675): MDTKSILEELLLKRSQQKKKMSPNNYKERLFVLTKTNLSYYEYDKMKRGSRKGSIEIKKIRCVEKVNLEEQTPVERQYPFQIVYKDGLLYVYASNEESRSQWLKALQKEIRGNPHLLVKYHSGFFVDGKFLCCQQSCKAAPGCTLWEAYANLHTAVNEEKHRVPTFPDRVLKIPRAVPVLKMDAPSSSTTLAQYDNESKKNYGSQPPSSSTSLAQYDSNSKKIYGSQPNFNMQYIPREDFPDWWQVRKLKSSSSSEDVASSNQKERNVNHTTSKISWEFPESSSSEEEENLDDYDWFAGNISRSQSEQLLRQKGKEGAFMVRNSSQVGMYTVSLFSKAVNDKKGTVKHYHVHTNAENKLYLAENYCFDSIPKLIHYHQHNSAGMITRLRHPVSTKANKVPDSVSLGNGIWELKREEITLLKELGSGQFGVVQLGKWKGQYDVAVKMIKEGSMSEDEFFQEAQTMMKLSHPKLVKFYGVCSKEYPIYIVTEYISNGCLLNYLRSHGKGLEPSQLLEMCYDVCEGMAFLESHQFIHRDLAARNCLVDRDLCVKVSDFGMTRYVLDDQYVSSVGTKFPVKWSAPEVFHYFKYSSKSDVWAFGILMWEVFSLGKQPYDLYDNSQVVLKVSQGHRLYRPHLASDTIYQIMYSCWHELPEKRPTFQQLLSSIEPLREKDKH
Outline: as §1

[4] = method is one of A, B or C, not stated which, read-out: IC50 values against Btk
[5] = wild-type Btk, read-out: Btk-WT IC50

IC50 [1] [µM]	IC50 [2, 4] [nM]	IC50 [2, 5] [nM]	IC50 [3] [µM]	TEC/Btk [1]	SMILES
1.65	< 10	1.77	1.73		CC(C)(C)c1nc(C(=O)NCc2ccc(-c3ccnc4[nH]nc(N5CC[C@@H](N)C5)c34)cc2F)no1 [Example 108, N-[(4-{3-[(3R)-3-aminopyrrolidin-1-yl]-1H-pyrazolo[3,4-b]pyridin-4-yl}-2-fluorophenyl)methyl]-5-tert-butyl-1,2,4-oxadiazole-3-carboxamide]
8.4		30.1	4.18		CC(C)(C)c1nc(C(=O)NCc2ccc(-c3ccnc4[nH]nc(NC5CCNCC5)c34)cc2F)no1 [Example 109, 5-tert-butyl-N-[(2-fluoro-4-{3-[(piperidin-4-yl)amino]-1H-pyrazolo[3,4-b]pyridin-4-yl}phenyl)methyl]-1,2,4-oxadiazole-3-carboxamide]
0.167	< 10	1.89	0.066	88	CC#CC(=O)N1CC[C@@H](Nc2n[nH]c3nccc(-c4ccc(CNC(=O)c5ccc(C(F)(F)F)cc5)c(F)c4)c23)C1 [Example 110, N-{[4-(3-{[(3R)-1-(but-2-ynoyl)pyrrolidin-3-yl]amino}-1H-pyrazolo[3,4-b]pyridin-4-yl)-2-fluorophenyl]methyl}-4-(trifluoromethyl)benzamide]
0.107	< 10	0.18	0.092	594	CC#CC(=O)N1CC[C@@H](Nc2n[nH]c3nccc(-c4ccc(CNC(=O)c5cc(C(C)(C)C)on5)c(F)c4)c23)C1 [Example 111, N-{[4-(3-{[(3R)-1-(but-2-ynoyl)pyrrolidin-3-yl]amino}-1H-pyrazolo[3,4-b]pyridin-4-yl)-2-fluorophenyl]methyl}-5-tert-butyl-1,2-oxazole-3-carboxamide]
0.1	< 10	4.07	0.048	24	CC#CC(=O)N1CC[C@@H](Nc2n[nH]c3nccc(-c4ccc(CNC(=O)c5ccc(OC)cc5)c(F)c4)c23)C1 [Example 112, N-{[4-(3-{[(3R)-1-(but-2-ynoyl)pyrrolidin-3-yl]amino}-1H-pyrazolo[3,4-b]pyridin-4-yl)-2-fluorophenyl]methyl}-4-methoxybenzamide]
1.71		10.4	0.28	164	CN(C)C(=O)N1CC[C@H](Nc2n[nH]c3nccc(-c4ccc(CNC(=O)c5noc(C(C)(C)C)n5)c(F)c4)c23)C1 [Example 113, 5-tert-butyl-N-{[4-(3-{[(3S)-1-(dimethylcarbamoyl)pyrrolidin-3-yl]amino}-1H-pyrazolo[3,4-b]pyridin-4-yl)-2-fluorophenyl]methyl}-1,2,4-oxadiazole-3-carboxamide]
4.1		93.3	2.11	44	CN(C)C(=O)N1CC[C@H](Nc2n[nH]c3nccc(-c4ccc(CNC(=O)c5ccc(C(C)(C)C)cc5)c(F)c4)c23)C1 [Example 114, (3S)-3-{[4-(4-{[(4-tert-butylphenyl)formamido]methyl}-3-fluorophenyl)-1H-pyrazolo[3,4-b]pyridin-3-yl]amino}-N,N-dimethylpyrrolidine-1-carboxamide]
6.32		25.7	6.45	246	CN(C)C(=O)N1CC[C@@H](Nc2n[nH]c3nccc(-c4ccc(CNC(=O)c5cc(C(C)(C)C)on5)c(F)c4)c23)C1 [Example 115, 5-tert-butyl-N-{[4-(3-{[(3R)-1-(dimethylcarbamoyl)pyrrolidin-3-yl]amino}-1H-pyrazolo[3,4-b]pyridin-4-yl)-2-fluorophenyl]methyl}-1,2-oxazole-3-carboxamide]
4.47		11	3.79	406	CN(C)C(=O)N1CCC[C@@H](Nc2n[nH]c3nccc(-c4ccc(CNC(=O)c5noc(C(C)(C)C)n5)c(F)c4)c23)C1 [Example 116, (3R)-3-{[4-(4-{[(5-tert-butyl-1,2,4-oxadiazol-3-yl) formamido]methyl}-3-fluorophenyl)-1H-pyrazolo[3,4-b]pyridin-3-yl]amino}-N,N-dimethylpiperidine-1-carboxamide]
> 10		46.2	5.96	>100	CN(C)C(=O)N1CC[C@@H](Nc2n[nH]c3nccc(-c4ccc(C5(NC(=O)c6nc(C(C)(C)C)no6)CC5)cc4)c23)C1 [Example 117, 3-tert-butyl-N-{1-[4-(3-{[(3R)-1-(dimethylcarbamoyl)pyrrolidin-3-yl]amino}-1H-pyrazolo[3,4-b]pyridin-4-yl)phenyl]cyclopropyl}-1,2,4-oxadiazole-5-carboxamide]
8.59		49	6.53	175	CN(C)C(=O)N1CC[C@@H](Nc2n[nH]c3nccc(-c4ccc(CNC(=O)c5cnn(C(C)(C)C)c5)c(F)c4)c23)C1 [Example 119, 1-tert-butyl-N-{[4-(3-{[(3R)-1-(dimethylcarbamoyl)pyrrolidin-3-yl]amino}-1H-pyrazolo[3,4-b]pyridin-4-yl)-2-fluorophenyl]methyl}-1H-pyrazole-4-carboxamide]
7.12	< 10	7.38	5.22	965	CN(C)C(=O)N1CC[C@@H](Nc2n[nH]c3nccc(-c4ccc(CNC(=O)c5nc(C(C)(C)C)no5)c(F)c4)c23)C1 [Example 120, 3-tert-butyl-N-{[4-(3-{[(3R)-1-(dimethylcarbmoyl)pyrrolidin-3-yl]amino}-1H-pyrazolo[3,4-b]pyridin-4-yl)-2-fluorophenyl]methyl}-1,2,4-oxadiazole-5-carboxamide]
> 10		210	> 10	>100	CC(C)(C)c1nc(C(=O)NC2(c3ccc(-c4ccnc5[nH]nc(N[C@@H]6CCCNC6)c45)cc3F)CC2)no1 [Example 121, 5-tert-butyl-N-{1-[2-fluoro-4-(3-{[(3R)-piperidin-3-yl]amino}-1H-pyrazolo[3,4-b]pyridin-4-yl)phenyl]cyclopropyl}-1,2,4-oxadiazole-3-carboxamide]
> 10		> 10000	> 10		CC(C)(C)c1nc(C(=O)NC(C)(C)c2ccc(-c3ccnc4[nH]nc(N[C@@H]5CCNC5)c34)cc2)no1 [Example 122, 5-tert-butyl-N-{2-[4-(3-{[(3R)-pyrrolidin-3-yl]amino}-1H-pyraozlo[3,4-b]pyridin-4-yl)phenyl]propan-2-yl}-1,2,4-oxadiazole-3-carboxamide]
> 10		> 10000	> 10		CC(C)(C)c1nc(NC(=O)Cc2ccc(-c3ccnc4[nH]nc(N[C@@H]5CCNC5)c34)cc2F)no1 [Example 123, N-(5-tert-butyl-1,2,4-oxadiazol-3-yl)-2-[2-fluoro-4-(3-{[(3R)-pyrrolidin-3-yl]amino}-1H-pyrazolo[3,4-b]pyridin-4-yl)phenyl]acetamide]
0.843	< 10	0.828	3.35	1018	CC(C)(C)c1nc(C(=O)NCc2ccc(-c3ccnc4[nH]nc(NC5CNC5)c34)cc2F)no1 [Example 124, N-[(4-{3-[(azetidin-3-yl)amino]-1H-pyrazolo[3,4-b]pyridin-4-yl}-2-fluorophenyl)methyl]-5-tert-butyl-1,2,4-oxadiazole-3-carboxamide]

Reference: US20180194762A1 (Pharmacyclics LLC, priority 2017, published 2018)
